The source of these data is paper PMC7073886, “Structure–Bioactivity Relationships of Lapatinib Derived Analogs against Schistosoma mansoni” (ACS Medicinal Chemistry Letters, 2020).

Data set [1] deals with adult S. mansoni. The experiment in a line: Phenotypic screen of adult S. mansoni worms, severity scores and descriptors. It is filed as cell-based, Schistosoma mansoni. As to conditions: for Descriptors (10 µM) 1 h / Severity Scores (10 μM) 1 h / Descriptors (10 µM) 5 h / Severity Scores (10 μM) 5 h / Descriptors (10 µM) 24 h / Severity Scores (10 μM) 24 h / Descriptors (10 µM) 48 h / Severity Scores (10 μM) 48 h: adult S. mansoni; for Descriptors (10 µM) 1 h / Descriptors (10 µM) 5 h / Descriptors (10 µM) 24 h / Descriptors (10 µM) 48 h: phenotypic descriptors; for Severity Scores (10 μM) 1 h / Severity Scores (10 μM) 5 h / Severity Scores (10 μM) 24 h / Severity Scores (10 μM) 48 h: scale 0 (no activity) to 4 (maximal activity). The gist of the method: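 Adult S. mansoni (NMRI isolate, ≥42 days old) were co-incubated with compounds and changes in motility, density, shape and adherence recorded visually over time and concentration. Descriptors converted to severity scores from 0 (no activity) to 4 (maximal).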

The subject of data set [2] is HepG2 cells. Description: Drug toxicity to HepG2 cells (MTT). In kind it is cell-based. As to conditions: HepG2 cells, 48 hours incubation, MTT.
Data set [3] is described as follows: Aqueous pH 7.4 solubility. The conditions noted are these: phosphate buffer pH 7.4, 25 °C, 20-24 h, read-out: aq sol (aqueous solubility). In kind it is physicochemical.
Data set [4] can be described thus: Human plasma protein binding (equilibrium dialysis). It is filed as in vitro ADME. As to conditions: for human PPB (plasma protein binding): 10 µM, 37 °C. On the technique in general: In equilibrium dialysis free small molecules cross a membrane that holds back macromolecules.
Data set [5] is described as follows: Human liver microsomal Clint. In kind it is in vitro ADME. The conditions noted are these: human liver microsomes, intrinsic clearance. In general terms: Liver microsomes are vesicles of endoplasmic reticulum, rich in cytochrome P450 enzymes.
A short description of data set [6]: Rat hepatocyte Clint. The conditions noted are these: rat hepatocytes, intrinsic clearance. It is filed as in vitro ADME.
Data set [7] can be described thus: Log D7.4 shake-flask octanol-water. In kind it is physicochemical. As to conditions: pH 7.4.

For orientation: solubility means the dissolved amount per volume that the medium holds. One may read the logD as lipophilicity at a set pH, counting ionised and neutral species.

≈ marks a conversion by molar mass, not a printed value. Where two headings read alike, the source gives them in different places.

As for `CS(=O)(=O)N1CCN(c2ncc(-c3ccc4c(Nc5cnccn5)ccnc4c3)cn2)CC1` [S2a], in data set [1], the “Descriptors (10 µM) 1 h” value is listed as “none”, the “Descriptors (10 µM) 5 h” value is “none”, the “Descriptors (10 µM) 24 h” value was “none” and the “Descriptors (10 µM) 48 h” value is “none”. Also, in data set [1] (10 μM), the “Severity Scores (10 μM) 1 h” value worked out at 0, the “Severity Scores (10 μM) 5 h” value is recorded as 0, the “Severity Scores (10 μM) 24 h” value came out at 0 and the “Severity Scores (10 μM) 48 h” value is recorded as 0. Besides, the “HepG2 TC50” value in data set [2] was above 33 µM. The solubility in data set [3] is given as 0.06 µM (≈ 0.0278 µg/mL). Moreover, the “human PPB (plasma protein binding)” value in data set [4] is 96%. Moreover, in data set [5], the “HLM Clint” value was 44 μL/min/mg protein. Moreover, the “RH CLint” value in data set [6] came out at 28 µL/min/10^6 cells. Further, in data set [7], the “LogD 7.4” value was 3.1.

For `c1cnc(Nc2ccnc3cc(-c4cnc(N5CCOCC5)nc4)ccc23)cn1` [S2d], in data set [1], the “Descriptors (10 µM) 1 h” value is “Shrunk, S”; the “Descriptors (10 µM) 24 h” value was “none”; the “Descriptors (10 µM) 48 h” value is listed as “none”. Also, in data set [1] (10 μM), the “Severity Scores (10 μM) 1 h” value stood at 2, the “Severity Scores (10 μM) 5 h” value worked out at 1, the “Severity Scores (10 μM) 24 h” value turned out to be 0 and the “Severity Scores (10 μM) 48 h” value was determined as 0. The “HepG2 TC50” value in data set [2] came to 39 µM. Also, the solubility in data set [3] came to 0.7 µM (≈ 0.27 µg/mL). In data set [4], the “human PPB (plasma protein binding)” value is recorded as 96%. Further, the “HLM Clint” value in data set [5] was above 300 μL/min/mg protein. Besides, in data set [6], the “RH CLint” value is reported as 93 µL/min/10^6 cells. Also, the “LogD 7.4” value in data set [7] is 3.7.

With `O=S(=O)(c1ccc(-c2ccc3nccc(Nc4ccncn4)c3c2)cc1)N1CCOCC1` [S3a], in data set [1], the “Descriptors (10 µM) 1 h” value is on record as “none”, the “Descriptors (10 µM) 5 h” value is given as “none”, the “Descriptors (10 µM) 24 h” value is listed as “none” and the “Descriptors (10 µM) 48 h” value is given as “none”. In data set [1] (10 μM), the “Severity Scores (10 μM) 1 h” value amounted to 0, the “Severity Scores (10 μM) 5 h” value was found to be 0, the “Severity Scores (10 μM) 24 h” value was 0 and the “Severity Scores (10 μM) 48 h” value is 0. Further, in data set [2], the “HepG2 TC50” value was above 34 µM. Besides, the solubility in data set [3] was 1.4 µM (≈ 0.627 µg/mL). Moreover, the “human PPB (plasma protein binding)” value in data set [4] is on record as 96%. For the same molecule, the “HLM Clint” value in data set [5] was found to be 210 μL/min/mg protein. Besides, the “RH CLint” value in data set [6] came out at 32 µL/min/10^6 cells. Moreover, the “LogD 7.4” value in data set [7] came to 3.3.

`O=S(=O)(c1ccc(-c2ccc3nccc(Nc4ncccn4)c3c2)cc1)N1CCOCC1` [S3b]: in data set [1], the “Descriptors (10 µM) 1 h” value is “S, on sides” and the “Descriptors (10 µM) 5 h” value is reported as “S, on sides”. In data set [1] (10 μM), the “Severity Scores (10 μM) 1 h” value was 2, the “Severity Scores (10 μM) 5 h” value stood at 2, the “Severity Scores (10 μM) 24 h” value is 3 and the “Severity Scores (10 μM) 48 h” value is recorded as 3. Further, the “bioactivity against adult S. mansoni” value in data set [1] (adult schistosomes, 10 μM) is “moderate activity after 1 h”. Also, the “HepG2 TC50” value in data set [2] was above 34 µM. In addition, the solubility in data set [3] (aqueous buffer, thermodynamic from solid) turned out to be 34 µM (≈ 15.2 µg/mL). Moreover, in data set [4] (pH 7.4, 37 °C, read-out: human PPB (plasma protein binding) (converted)), the fraction unbound at 10 µM is 0.01. Moreover, the microsomal CLint in data set [5] (read-out: HLM Clint) worked out at 270 µL/min/mg. The hepatocyte CLint in data set [6] (read-out: RH CLint) worked out at 85 µL/min/1e6 cells. In data set [7], this molecule returned a logD of 3.7.

In the case of `O=S(=O)(c1ccc(-c2ccc3nccc(NCCN4CCCC4)c3c2)cc1)N1CCOCC1` [S3e], in data set [1], the “Descriptors (10 µM) 1 h” value is given as “none” and the “Descriptors (10 µM) 5 h” value is “none”. Further, in data set [1] (10 μM), the “Severity Scores (10 μM) 1 h” value is listed as 0, the “Severity Scores (10 μM) 5 h” value turned out to be 0, the “Severity Scores (10 μM) 24 h” value was found to be 1 and the “Severity Scores (10 μM) 48 h” value came out at 3. In data set [2], the “HepG2 TC50” value came out at 9.2 µM. Also, the solubility in data set [3] stood at 870 µM (≈ 406 µg/mL). In data set [4], the “human PPB (plasma protein binding)” value was found to be 73%. In data set [5], the “HLM Clint” value is 28 μL/min/mg protein. Besides, the “RH CLint” value in data set [6] amounted to 10 µL/min/10^6 cells. The “LogD 7.4” value in data set [7] is given as 2.2.

Consider `O=S(=O)(c1ccc(-c2ccc3nccc(NC4CCOCC4)c3c2)cc1)N1CCOCC1` [S3f], for which, in data set [1] (10 μM), the “Severity Scores (10 μM) 1 h” value stood at 1, the “Severity Scores (10 μM) 5 h” value turned out to be 1, the “Severity Scores (10 μM) 24 h” value amounted to 1 and the “Severity Scores (10 μM) 48 h” value was 1. Further, in data set [2], the “HepG2 TC50” value was found to be 16 µM. Also, the solubility in data set [3] is 7 µM (≈ 3.17 µg/mL). Further, the “human PPB (plasma protein binding)” value in data set [4] was determined as 70%. Besides, the “HLM Clint” value in data set [5] was 59 μL/min/mg protein. Moreover, the “RH CLint” value in data set [6] was 20 µL/min/10^6 cells. Further, in data set [7], the “LogD 7.4” value was 2.3.

For `O=S(=O)(c1ccc(-c2ccc3nccc(NCC4CCOCC4)c3c2)cc1)N1CCOCC1` [S3g], in data set [1], the “Descriptors (10 µM) 1 h” value is “none”, the “Descriptors (10 µM) 5 h” value was “none”, the “Descriptors (10 µM) 24 h” value is “none” and the “Descriptors (10 µM) 48 h” value is “none”. In data set [1] (10 μM), the “Severity Scores (10 μM) 1 h” value was found to be 0, the “Severity Scores (10 μM) 5 h” value amounted to 0, the “Severity Scores (10 μM) 24 h” value is 0 and the “Severity Scores (10 μM) 48 h” value is given as 0. The “HepG2 TC50” value in data set [2] amounted to 32 µM. The solubility in data set [3] is 38 µM (≈ 17.8 µg/mL). For the same molecule, in data set [4], the “human PPB (plasma protein binding)” value was determined as 74%. For the same molecule, in data set [5], the “HLM Clint” value came to 70 μL/min/mg protein. Moreover, the “RH CLint” value in data set [6] came out at 72 µL/min/10^6 cells. The “LogD 7.4” value in data set [7] was determined as 2.7.

As to `O=S(=O)(c1ccc(-c2ccc3nccc(NCCC4CCOCC4)c3c2)cc1)N1CCOCC1` [S3h], in data set [1], the “Descriptors (10 µM) 1 h” value is on record as “none”, the “Descriptors (10 µM) 5 h” value is listed as “none”, the “Descriptors (10 µM) 24 h” value was “none” and the “Descriptors (10 µM) 48 h” value is on record as “none”. In data set [1] (10 μM), the “Severity Scores (10 μM) 1 h” value stood at 0, the “Severity Scores (10 μM) 5 h” value is on record as 0, the “Severity Scores (10 μM) 24 h” value was determined as 0 and the “Severity Scores (10 μM) 48 h” value was determined as 0. Moreover, the “HepG2 TC50” value in data set [2] was 21 µM. The solubility in data set [3] stood at 200 µM (≈ 96.3 µg/mL). For the same molecule, the “human PPB (plasma protein binding)” value in data set [4] stood at 82%. The “HLM Clint” value in data set [5] is 110 μL/min/mg protein. Besides, the “RH CLint” value in data set [6] is 100 µL/min/10^6 cells. In addition, in data set [7], the “LogD 7.4” value is recorded as 2.8.

For the molecule `CN1CCCN(c2ncc(-c3ccc4nccc(Nc5cnccn5)c4c3)cn2)CC1` [S3i], in data set [1], the “Descriptors (10 µM) 1 h” value was “none”, the “Descriptors (10 µM) 5 h” value is recorded as “none” and the “Descriptors (10 µM) 24 h” value is “none”. In data set [1] (10 μM), the “Severity Scores (10 μM) 1 h” value is 0, the “Severity Scores (10 μM) 5 h” value worked out at 0 and the “Severity Scores (10 μM) 24 h” value stood at 0. In addition, the “HepG2 TC50” value in data set [2] was above 37 µM. Further, the solubility in data set [3] was determined as 990 µM (≈ 408 µg/mL). Besides, the “human PPB (plasma protein binding)” value in data set [4] is 81%. In addition, the “HLM Clint” value in data set [5] came out at 48 μL/min/mg protein. Further, the “RH CLint” value in data set [6] stood at 12 µL/min/10^6 cells. For the same molecule, the “LogD 7.4” value in data set [7] is on record as 2.5.

Turning to `CN1CCCN(c2ncc(-c3ccc4nccc(Nc5ccncn5)c4c3)cn2)CC1` [S3j], in data set [1], the “Descriptors (10 µM) 1 h” value was “none”, the “Descriptors (10 µM) 5 h” value is “none” and the “Descriptors (10 µM) 24 h” value was “none”. In addition, in data set [1] (10 μM), the “Severity Scores (10 μM) 1 h” value stood at 0, the “Severity Scores (10 μM) 5 h” value worked out at 0 and the “Severity Scores (10 μM) 24 h” value amounted to 0. For the same molecule, the “HepG2 TC50” value in data set [2] was above 37 µM. Also, in data set [3], the solubility is listed as 910 µM (≈ 375 µg/mL). Further, in data set [4], the “human PPB (plasma protein binding)” value was 61%. Besides, in data set [5], the “HLM Clint” value was 87 μL/min/mg protein. The “RH CLint” value in data set [6] stood at 19 µL/min/10^6 cells. Besides, in data set [7], the “LogD 7.4” value was 2.2.
